In ChEMBL document CHEMBL1148989, “Meroterpenoid MAPKAP (MK2) inhibitors isolated from the indonesian marine sponge Acanthodendrilla sp” (J Nat Prod, 2004):

Biological target: MAP kinase-activated protein kinase 2 (Homo sapiens, UniProt P49137)
Assay: Inhibition of MK2

Chain of MAP kinase-activated protein kinase 2 (P49137 whole entry): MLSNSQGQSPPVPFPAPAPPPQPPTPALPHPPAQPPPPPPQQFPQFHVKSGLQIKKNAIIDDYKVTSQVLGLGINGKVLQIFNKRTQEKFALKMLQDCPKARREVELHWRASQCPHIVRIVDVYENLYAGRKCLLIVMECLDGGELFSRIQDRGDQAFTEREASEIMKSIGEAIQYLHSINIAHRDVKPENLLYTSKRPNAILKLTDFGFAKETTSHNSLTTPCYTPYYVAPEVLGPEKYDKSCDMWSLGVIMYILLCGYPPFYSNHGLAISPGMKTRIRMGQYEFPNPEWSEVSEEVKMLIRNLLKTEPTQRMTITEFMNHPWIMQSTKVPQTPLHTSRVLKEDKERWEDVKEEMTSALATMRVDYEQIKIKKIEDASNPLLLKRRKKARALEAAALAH

## CC1=CC[C@H]2[C@@](C)(CC[C@H]3C(C)(C)CCC[C@]23C)[C@@H]1Cc1cc(C(=O)O)ccc1O
  IC50: 20 µM

## CC1=C(CC/C(C)=C/Cc2cc(C(=O)O)ccc2O)[C@@]2(C)CCCC(C)(C)[C@@H]2CC1
  IC50: 9.6 µM
